The values that follow come from patent US10028961B2, “Therapeutically active compounds and their methods of use” (AGIOS PHARMACEUTICALS, INC., priority 2013, dated 2018).

The target in one assay is IDH2 R140Q (Homo sapiens (Human), UniProt P48735, R140Q). Briefly: In vitro assay for IDH2m R140Q inhibitors, cofactor depletion assay, 16 hr preincubation with NADPH/NADP. It counts as biochemical. To be noted: read-out: IDH2 R140Q 16 hr NADPH/NADP IC50; 16 hrs preincubation with enzyme, 5 uM NADPH and 750 uM NADP. The text has this:
The following describes the experimental procedures used to obtain data on column 6 of Table 5.
The reaction is terminated by the addition of a second enzyme, diaphorase, and a corresponding substrate, resazurin. Diaphorase reduces resazurin to the highly fluorescent resorufin with the concomitant oxidation of NADPH to NADP, both halting the IDH2 reaction by depleting the available cofactor pool and facilitating quantitation of the amount of cofactor remaining after a specific time period through quantitative production of an easily detected fluorophore.
The test compound is then incubated for 16 hrs at room temperature with the enzyme and cofactors before starting the IDH2 reaction with the addition of 10 μl of substrate mix containing 8 mM α-KG (final concentration 1.6 mM) in the buffer described above. After a further 1 hour of incubation at room temperature, the reaction is halted and the remaining NADPH measured through conversion of resazurin to resorufin by the addition of 25 μl Stop Mix (36 μg/ml diaphorase enzyme and 60 μM resazurin; in buffer).

Assay [1] deals with IDH1 wt/IDH1 R132C heterodimer (Homo sapiens (Human), UniProt O75874, R132C). Nature of the assay: In vitro assay for IDH1m R132C inhibitors, IDH1 wt/IDH1 R132C heterodimer, NADPH depletion (diaphorase/resazurin). The conditions noted are these: NADPH/NADP. It is filed as biochemical. An outline of the steps: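 Remaining NADPH was measured by diaphorase/resazurin conversion (5 min, 25 °C) as resorufin fluorescence, Ex 544/Em 590. DMSO was diluted 1:50 into the reaction, and IC50s were derived.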

The subject of assay [2] is U87MG pLVX-IDH2 R140Q-neo cells. Nature of the assay: U87MG pLVX-IDH2 R140Q-neo cell based assay, 2-HG by LC-MS. The conditions noted are these: Homo sapiens, U-87 MG.
Assay [3] addresses IDH1-R132H homodimer enzyme (Homo sapiens (Human), UniProt O75874, R132H). Nature of the assay: In vitro assay IDH1-R132H homodimer, NADPH depletion assay with NADPH/NADP preincubation. It is filed as biochemical. To be noted: 5 μM NADPH and 37.5 μM NADP. In short, it runs like this:
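Compounds were added from DMSO at 50× final concentration, and the mutant enzyme was incubated 60 min at room temperature after starting with a substrate mix holding NADPH and 5 mM alpha-ketoglutarate. Residual cofactor, read by fluorescence after excess diaphorase and resazurin, reflects enzyme turnover.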

The subject of another assay is HT1080 cells. Briefly: Cellular assay for IDH1m R132C inhibitors, 2-HG by LC-MS in HT1080 cells. It is filed as cell-based. The conditions noted are these: Homo sapiens, HT-1080. An outline of the steps:
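2-HG levels were measured by LC-MS in culture medium sampled 48 h after compound addition (0.2% DMSO) to HT1080 cells seeded overnight at 5000 cells/well. A CellTiter-Glo luminescence read at 72 h gave cell viability.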

Molecules are shown by their SMILES. Bounds are passed on as bounds.

Sequence of IDH2 R140Q (P48735 40-452 R140Q): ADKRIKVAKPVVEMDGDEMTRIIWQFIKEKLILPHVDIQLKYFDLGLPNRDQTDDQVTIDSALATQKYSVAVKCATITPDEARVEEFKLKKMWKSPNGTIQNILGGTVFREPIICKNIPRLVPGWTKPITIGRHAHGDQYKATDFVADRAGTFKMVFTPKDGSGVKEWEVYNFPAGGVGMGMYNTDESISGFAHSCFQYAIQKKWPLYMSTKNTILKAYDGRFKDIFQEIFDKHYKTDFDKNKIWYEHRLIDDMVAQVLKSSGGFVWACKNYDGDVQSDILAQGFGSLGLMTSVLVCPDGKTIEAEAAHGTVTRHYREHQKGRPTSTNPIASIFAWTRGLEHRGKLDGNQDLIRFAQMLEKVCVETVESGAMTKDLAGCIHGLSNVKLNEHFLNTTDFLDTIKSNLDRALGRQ
Sequence of IDH1 wt/IDH1 R132C heterodimer (O75874 whole entry R132C): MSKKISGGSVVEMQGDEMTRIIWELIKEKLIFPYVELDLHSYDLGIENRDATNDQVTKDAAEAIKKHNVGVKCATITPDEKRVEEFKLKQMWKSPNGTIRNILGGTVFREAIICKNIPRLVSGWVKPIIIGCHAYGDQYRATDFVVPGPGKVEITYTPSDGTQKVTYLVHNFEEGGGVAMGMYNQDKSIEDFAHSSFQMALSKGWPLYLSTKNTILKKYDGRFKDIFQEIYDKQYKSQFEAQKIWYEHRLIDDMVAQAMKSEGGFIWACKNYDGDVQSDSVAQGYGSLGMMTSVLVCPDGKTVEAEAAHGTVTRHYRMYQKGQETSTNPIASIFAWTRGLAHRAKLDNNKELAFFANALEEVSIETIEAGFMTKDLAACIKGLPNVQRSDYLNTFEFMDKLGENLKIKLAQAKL
Sequence of IDH1 wt/IDH1 R132C heterodimer (O75874 whole entry, stated change not applied): as the sequence (O75874 whole entry R132C) above, with C132R counted along it
Sequence of IDH1-R132H homodimer enzyme (O75874 whole entry R132H): as the sequence (O75874 whole entry R132C) above, with C132H counted along it

As to `CC(C)(C)Nc1nc(Nc2cc(F)cc(C#N)c2)nc(-c2nccc(C(F)(F)F)n2)n1` [Compound 245], the IC50 was < 50 nM at IDH2 R140Q, 100 to 1000 nM in assay [1] and < 50 nM in assay [2].

Turning to `C[C@@H](Nc1nc(Nc2ccnc(C3(C#N)CC3)c2)nc(-c2cccc(Cl)n2)n1)C1CC1` [Compound 167], the IC50 (in assay [3]; on IDH2 R140Q; in assay [1]; in assay [2]) was < 50 nM each time.

`O=C(c1ccccc1)N1CCC(Nc2nc(NC3CCC(F)(F)C3)nc(-c3cccc(C(F)(F)F)n3)n2)C1` (stereo not shown) [Compound 263]: the IC50 (in assay [3]; on IDH2 R140Q; with HT1080 cells; in assay [1]) was 100 to 1000 nM each time.

`FC1(F)CCC(Nc2nc(NC3CCN(Cc4ccccc4)C3)nc(-c3cccc(C(F)(F)F)n3)n2)C1` (stereo not shown) [Compound 280]: the IC50 in assay [3] is > 1000 nM; at IDH2 R140Q, 100 to 1000 nM; in the assay with HT1080 cells, > 1000 nM; in assay [1], ≥ 1000 nM.

With `CC(=O)N1CCC(Nc2nc(NC3CCC(F)(F)CC3)nc(-c3cccc(C(F)(F)F)n3)n2)CC1` [Compound 273], the IC50 in assay [3] was > 1000 nM; on IDH2 R140Q, > 1000 nM; in the assay with HT1080 cells, > 1000 nM; in assay [1], 100 to 1000 nM.

Take `CC(Nc1nc(N[C@H](C)C2CC2)nc(-c2cccc(C(F)(F)F)n2)n1)C(F)(F)F` (stereo partly shown) [Compound 203]: the IC50 (in assay [3]; on IDH2 R140Q; with HT1080 cells; in assay [1]; in assay [2]) was < 50 nM in each case.

Turning to `CS(=O)(=O)N1CCC(Nc2nc(NC3CCC(F)(F)CC3)nc(-c3cccc(C(F)(F)F)n3)n2)CC1` [Compound 266], the IC50 was > 1000 nM in assay [3], 100 to 1000 nM on IDH2 R140Q, > 1000 nM in the assay with HT1080 cells and 100 to 1000 nM in assay [1].

Turning to `FC1(F)CCC(Nc2nc(NC3CCOCC3)nc(-c3cccc(C(F)(F)F)n3)n2)CC1` [Compound 255], the IC50 (in assay [3]; on IDH2 R140Q; with HT1080 cells; in assay [1]) was 100 to 1000 nM in each case.

On to `CC(C)(O)CNc1nc(Nc2cc(F)cc(C#N)c2)nc(-c2cccc(C(F)(F)F)n2)n1` [Compound 244], for which the IC50 is 50 to 100 nM on IDH2 R140Q, > 1000 nM in the assay on HT1080 cells, 100 to 1000 nM in assay [1] and < 50 nM in assay [2].

Turning to `FC1(F)CCC(Nc2nc(NC3CCC(F)(F)CC3)nc(-c3cncc(Cl)n3)n2)CC1` [Compound 147], the IC50 was 50 to 100 nM in assay [3], 100 to 1000 nM in the assay with HT1080 cells, < 50 nM in assay [1] and < 50 nM in assay [2].

On to `FC(F)c1cccc(-c2nc(NC3CCC(F)(F)CC3)nc(NC3CCC(F)(F)CC3)n2)n1` [Compound 224], for which the IC50 is 100 to 1000 nM in assay [3], 100 to 1000 nM in the assay on HT1080 cells, < 50 nM in assay [1] and < 50 nM in assay [2].

As to `FC(F)c1cccc(-c2nc(NC3CC(F)(F)C3)nc(NC3CC(F)(F)C3)n2)n1` [Compound 145], the IC50 in assay [3] is < 50 nM; with HT1080 cells, 100 to 1000 nM; in assay [1], < 50 nM; in assay [2] it was < 50 nM.

`FC1(F)CCC(Nc2nc(NC3CCC(F)(F)C3)nc(-c3cccc(Cl)n3)n2)C1` (stereo not shown) [Compound 113]: the IC50 (in assay [3]; on IDH2 R140Q; with HT1080 cells; in assay [1]; in assay [2]) was < 50 nM throughout.

With `CC(CC#N)Nc1nc(Nc2ccnc(C(C)(F)F)c2)nc(-c2cccc(C(F)(F)F)n2)n1` (stereo not shown) [Compound 250], the IC50 was 100 to 1000 nM in assay [3], 50 to 100 nM on IDH2 R140Q, 100 to 1000 nM in assay [1] and < 50 nM in assay [2].

As to `FC1(F)CCC(Nc2nc(Nc3ccnc(C(F)(F)F)c3)nc(-c3cccc(C(F)(F)F)n3)n2)CC1` [Compound 192], the IC50 in assay [3] was 100 to 1000 nM; with HT1080 cells it was 100 to 1000 nM; in assay [1], < 50 nM; in assay [2], < 50 nM.

As for `FC1(F)CC(Nc2nc(NC3CC(F)(F)C3)nc(-c3nc(C(F)(F)F)cs3)n2)C1` [Compound 128], the IC50 (in assay [3]; in the assay on HT1080 cells; in assay [1]; in assay [2]) was < 50 nM each time.

Take `C[C@@H](Nc1nc(N[C@H](C)C2CC2)nc(-n2ccc(C(F)(F)F)n2)n1)C1CC1` [Compound 121]: the IC50 was 50 to 100 nM in assay [3], < 50 nM in the assay with HT1080 cells, < 50 nM in assay [1] and < 50 nM in assay [2].

For the compound `C[C@@H](Nc1nc(N[C@H](C)C2CC2)nc(-c2nccc(C(F)(F)F)n2)n1)C1CC1` [Compound 268], the IC50 is > 1000 nM in assay [3]; 50 to 100 nM on IDH2 R140Q; 100 to 1000 nM in the assay on HT1080 cells; < 50 nM in assay [1]; 50 to 100 nM in assay [2].

Take `C[C@@H](Nc1nc(NC(C2CC2)C2CC2)nc(-c2cccc(C(F)(F)F)n2)n1)C1CC1` [Compound 193]: the IC50 in assay [3] was 50 to 100 nM; on IDH2 R140Q, < 50 nM; in assay [1], < 50 nM; in assay [2] it was < 50 nM.

For the compound `FC1(F)CCC(Nc2nc(NC3CCC(F)(F)CC3)nc(-n3ccc(C(F)(F)F)n3)n2)CC1` [Compound 176], the IC50 in assay [3] was 100 to 1000 nM; in the assay on HT1080 cells, 100 to 1000 nM; in assay [1], < 50 nM; in assay [2], < 50 nM.

For `N#CC1(c2cc(Nc3nc(NC4CCC(F)(F)C4)nc(-c4cccc(Cl)n4)n3)ccn2)CC1` (stereo not shown) [Compound 127], the IC50 was < 50 nM in assay [3]; < 50 nM on IDH2 R140Q; 50 to 100 nM with HT1080 cells; < 50 nM in assay [1]; < 50 nM in assay [2].

For `CC(C)(C)Nc1nc(Nc2cccc(C#N)c2)nc(-c2cccc(C(F)(F)F)n2)n1` [Compound 117], the IC50 on IDH2 R140Q is < 50 nM; in the assay with HT1080 cells it was > 1000 nM; in assay [1], < 50 nM; in assay [2], < 50 nM.

Regarding `N#CC1(c2cc(Nc3nc(NC4CC5(C4)CC(F)(F)C5)nc(-c4cccc(C(F)(F)F)n4)n3)ccn2)CC1` [Compound 229], the IC50 is 100 to 1000 nM in assay [3], 100 to 1000 nM in the assay with HT1080 cells, 50 to 100 nM in assay [1] and < 50 nM in assay [2].

As to `FC1(F)CCC(Nc2nc(Nc3ccnc(C(F)(F)F)c3)nc(-c3cccc(C(F)(F)F)n3)n2)C1` (stereo not shown) [Compound 178], the IC50 is 50 to 100 nM in assay [3], < 50 nM on IDH2 R140Q, < 50 nM in assay [1] and < 50 nM in assay [2].

As for `CCC(Nc1nc(NC(CC)C2CC2)nc(-c2cccc(Cl)n2)n1)C1CC1` (stereo not shown) [Compound 110], the IC50 in assay [3] was 50 to 100 nM; on IDH2 R140Q it was < 50 nM; in the assay on HT1080 cells, 50 to 100 nM; in assay [1], < 50 nM; in assay [2] it was < 50 nM.

Turning to `Fc1ccc([C@H]2C[C@@H](Nc3nc(N[C@H]4C[C@@H](c5ccc(F)cc5)C4)nc(-c4cccc(C(F)(F)F)n4)n3)C2)cc1` [Compound 272], the IC50 is > 1000 nM in assay [3], 100 to 1000 nM in the assay with HT1080 cells, 100 to 1000 nM in assay [1] and 100 to 1000 nM in assay [2].

On to `FC1(F)CCC(Nc2nc(Nc3ccnc(C(F)(F)F)c3)nc(-c3cccc(Cl)n3)n2)C1` (stereo not shown) [Compound 115], for which the IC50 in assay [3] is < 50 nM; with HT1080 cells, 100 to 1000 nM; in assay [1], < 50 nM; in assay [2] it was < 50 nM.
